Measurements: patent publication US6608086B2, “Dihydropyridines and new uses thereof” (Synaptic Pharmaceutical Corporation, priority 1993, dated 2003)
Counter-ions that a name gives are not always drawn. Like-named read-outs stand apart in the source and are kept apart here.

Experiments:
[1] = molecular target: T1, α1A Human Adrenergic Receptor (Homo sapiens, UniProt P25100); test: Radioligand binding, [3H]prazosin, cloned human α1A adrenergic receptor
T1 construct: The entire coding region of α1A (1719 bp); expressed in transfected cells
T1 sequence (P25100 1-572): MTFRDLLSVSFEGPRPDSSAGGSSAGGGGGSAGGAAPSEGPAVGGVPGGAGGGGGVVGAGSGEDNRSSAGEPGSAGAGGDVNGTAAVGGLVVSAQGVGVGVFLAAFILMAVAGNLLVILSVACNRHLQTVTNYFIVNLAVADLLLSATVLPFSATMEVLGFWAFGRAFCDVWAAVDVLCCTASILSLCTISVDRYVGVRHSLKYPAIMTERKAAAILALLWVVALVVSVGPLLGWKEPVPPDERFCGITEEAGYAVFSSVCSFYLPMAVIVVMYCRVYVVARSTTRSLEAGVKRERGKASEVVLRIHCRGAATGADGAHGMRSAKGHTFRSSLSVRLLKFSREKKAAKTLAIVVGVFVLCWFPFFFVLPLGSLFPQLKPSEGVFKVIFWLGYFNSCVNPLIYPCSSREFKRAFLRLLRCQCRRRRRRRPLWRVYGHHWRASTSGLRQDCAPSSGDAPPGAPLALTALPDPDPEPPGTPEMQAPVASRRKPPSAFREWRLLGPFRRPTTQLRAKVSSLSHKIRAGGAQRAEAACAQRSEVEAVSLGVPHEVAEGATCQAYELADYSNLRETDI
In short: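 Filter-bound radioactivity measured [3H]prazosin (0.5 nM) binding to membranes of LM(tk−) cells expressing the human α1A receptor after 20 min at 37° C. Phentolamine at 10 μM set nonspecific binding.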

[2] = molecular target: T2, α2B receptor (Homo sapiens, UniProt P18089); test: Competition binding, [3H]rauwolscine, human α2B receptor; conditions: [3H]rauwolscine
T2 construct: host or cells: LM(tk-) cells, line L-NGC-α2B
T2 sequence (P18089 1-450): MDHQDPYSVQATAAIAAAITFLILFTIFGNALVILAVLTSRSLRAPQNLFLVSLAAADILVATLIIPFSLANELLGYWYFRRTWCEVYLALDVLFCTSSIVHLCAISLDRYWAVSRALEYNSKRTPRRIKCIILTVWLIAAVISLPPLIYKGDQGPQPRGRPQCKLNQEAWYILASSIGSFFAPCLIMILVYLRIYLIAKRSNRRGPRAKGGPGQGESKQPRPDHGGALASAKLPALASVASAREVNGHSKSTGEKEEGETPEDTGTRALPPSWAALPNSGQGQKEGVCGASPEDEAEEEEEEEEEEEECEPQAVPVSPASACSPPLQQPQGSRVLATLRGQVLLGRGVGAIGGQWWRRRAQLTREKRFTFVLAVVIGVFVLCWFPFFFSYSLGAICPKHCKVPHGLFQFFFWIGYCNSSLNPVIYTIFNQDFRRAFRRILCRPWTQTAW
From the text: (§1) The protocols for these experiments are given below.
(§2) α2 Human Adrenergic Receptors:
(§3) To determine the potency of […], antagonists at the α2 receptors, LM(tk−) cell lines stably transfected with the genes encoding the α2A, α2B, and α2C receptors were used. The cell line expressing the α2A receptor is designated L-α2A, and was deposited on Nov. […] The cell line expressing the α2B receptor is designated L-NGC-α2B, and was deposited on Oct. […] The cell line expressing the α2C receptor is designated L-α2C, and was deposited on Nov. […] Cell lysates were prepared as described above (see Radioligand Binding Assays), and suspended in 25 mM glycylglycine buffer (pH 7.6 at room temperature). Equilibrium competition binding assay were performed using [3H]rauwolscine (0.5 nM), and nonspecific binding was determined by incubation with 10 μM phentolamine. The bound radioligand was separated by filtration through GF/B filters using a cell harvester.

[3] = molecular target: T3, L-type calcium channel (Rattus norvegicus, UniProt P22002); test: Competition binding of [3H]nitrendipine to membrane fragments of rat cardiac muscle; conditions: [3H]nitrendipine, rat cardiac muscle membranes
T3 construct: membrane fragments of rat cardiac muscle; from tissue; host or cells: rat cardiac muscle membranes
T3 sequence (P22002 whole entry, other chains not shown, the tested form may be a part): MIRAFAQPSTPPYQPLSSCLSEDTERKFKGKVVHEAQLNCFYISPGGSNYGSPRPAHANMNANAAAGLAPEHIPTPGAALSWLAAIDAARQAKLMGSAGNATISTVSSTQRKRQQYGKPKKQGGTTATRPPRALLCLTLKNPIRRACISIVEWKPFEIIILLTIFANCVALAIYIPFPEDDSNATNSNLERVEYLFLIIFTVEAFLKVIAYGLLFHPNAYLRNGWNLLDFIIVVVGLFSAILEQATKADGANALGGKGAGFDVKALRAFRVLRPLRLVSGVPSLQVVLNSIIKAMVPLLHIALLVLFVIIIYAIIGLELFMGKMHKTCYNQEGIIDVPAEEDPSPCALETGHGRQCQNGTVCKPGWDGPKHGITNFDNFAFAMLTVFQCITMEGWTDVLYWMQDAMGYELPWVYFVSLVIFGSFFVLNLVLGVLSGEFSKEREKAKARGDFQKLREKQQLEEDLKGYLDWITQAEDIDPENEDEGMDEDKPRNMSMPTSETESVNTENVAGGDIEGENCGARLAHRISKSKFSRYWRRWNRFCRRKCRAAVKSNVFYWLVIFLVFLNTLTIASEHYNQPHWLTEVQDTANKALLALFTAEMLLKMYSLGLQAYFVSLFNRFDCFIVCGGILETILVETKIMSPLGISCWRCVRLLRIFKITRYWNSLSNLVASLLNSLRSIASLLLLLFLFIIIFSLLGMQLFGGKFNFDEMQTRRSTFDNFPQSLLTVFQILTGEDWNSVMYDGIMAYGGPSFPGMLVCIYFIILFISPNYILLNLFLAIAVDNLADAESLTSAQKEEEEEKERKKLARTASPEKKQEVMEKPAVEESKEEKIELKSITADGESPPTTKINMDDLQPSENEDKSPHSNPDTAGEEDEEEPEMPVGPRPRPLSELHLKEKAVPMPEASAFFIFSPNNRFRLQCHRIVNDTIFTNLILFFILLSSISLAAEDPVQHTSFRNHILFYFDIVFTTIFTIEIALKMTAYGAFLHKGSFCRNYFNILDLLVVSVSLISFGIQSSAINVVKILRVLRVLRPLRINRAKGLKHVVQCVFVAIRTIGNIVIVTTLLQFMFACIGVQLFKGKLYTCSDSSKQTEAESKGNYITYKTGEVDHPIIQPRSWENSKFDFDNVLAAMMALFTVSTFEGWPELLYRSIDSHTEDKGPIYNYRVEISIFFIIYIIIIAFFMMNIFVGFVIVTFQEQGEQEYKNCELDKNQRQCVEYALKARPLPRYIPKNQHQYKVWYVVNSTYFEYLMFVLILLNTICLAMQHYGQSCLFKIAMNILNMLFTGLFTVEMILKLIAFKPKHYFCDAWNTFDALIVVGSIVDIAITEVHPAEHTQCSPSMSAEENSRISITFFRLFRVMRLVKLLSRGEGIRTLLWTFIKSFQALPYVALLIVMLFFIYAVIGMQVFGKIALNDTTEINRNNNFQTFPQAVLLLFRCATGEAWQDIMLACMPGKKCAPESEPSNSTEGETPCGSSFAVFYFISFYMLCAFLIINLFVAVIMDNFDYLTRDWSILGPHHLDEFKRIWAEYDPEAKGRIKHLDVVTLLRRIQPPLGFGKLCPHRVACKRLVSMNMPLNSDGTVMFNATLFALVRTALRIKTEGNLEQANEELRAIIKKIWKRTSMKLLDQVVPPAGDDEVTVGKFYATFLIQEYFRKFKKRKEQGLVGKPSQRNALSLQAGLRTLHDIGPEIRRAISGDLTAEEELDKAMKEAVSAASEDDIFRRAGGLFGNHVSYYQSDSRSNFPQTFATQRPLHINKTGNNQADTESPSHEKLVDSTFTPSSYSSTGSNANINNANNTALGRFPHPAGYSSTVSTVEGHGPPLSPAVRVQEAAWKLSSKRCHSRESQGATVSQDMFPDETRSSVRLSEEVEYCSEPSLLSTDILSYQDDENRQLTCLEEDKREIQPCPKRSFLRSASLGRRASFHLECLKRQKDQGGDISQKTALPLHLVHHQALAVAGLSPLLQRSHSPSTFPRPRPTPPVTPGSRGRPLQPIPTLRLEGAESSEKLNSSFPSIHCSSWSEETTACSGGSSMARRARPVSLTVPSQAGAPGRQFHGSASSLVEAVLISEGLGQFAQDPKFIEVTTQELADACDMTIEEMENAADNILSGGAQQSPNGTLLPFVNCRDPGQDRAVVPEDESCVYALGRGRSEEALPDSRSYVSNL
T3 sequence (P54290 25-944 partner limits assumed, other chains not shown): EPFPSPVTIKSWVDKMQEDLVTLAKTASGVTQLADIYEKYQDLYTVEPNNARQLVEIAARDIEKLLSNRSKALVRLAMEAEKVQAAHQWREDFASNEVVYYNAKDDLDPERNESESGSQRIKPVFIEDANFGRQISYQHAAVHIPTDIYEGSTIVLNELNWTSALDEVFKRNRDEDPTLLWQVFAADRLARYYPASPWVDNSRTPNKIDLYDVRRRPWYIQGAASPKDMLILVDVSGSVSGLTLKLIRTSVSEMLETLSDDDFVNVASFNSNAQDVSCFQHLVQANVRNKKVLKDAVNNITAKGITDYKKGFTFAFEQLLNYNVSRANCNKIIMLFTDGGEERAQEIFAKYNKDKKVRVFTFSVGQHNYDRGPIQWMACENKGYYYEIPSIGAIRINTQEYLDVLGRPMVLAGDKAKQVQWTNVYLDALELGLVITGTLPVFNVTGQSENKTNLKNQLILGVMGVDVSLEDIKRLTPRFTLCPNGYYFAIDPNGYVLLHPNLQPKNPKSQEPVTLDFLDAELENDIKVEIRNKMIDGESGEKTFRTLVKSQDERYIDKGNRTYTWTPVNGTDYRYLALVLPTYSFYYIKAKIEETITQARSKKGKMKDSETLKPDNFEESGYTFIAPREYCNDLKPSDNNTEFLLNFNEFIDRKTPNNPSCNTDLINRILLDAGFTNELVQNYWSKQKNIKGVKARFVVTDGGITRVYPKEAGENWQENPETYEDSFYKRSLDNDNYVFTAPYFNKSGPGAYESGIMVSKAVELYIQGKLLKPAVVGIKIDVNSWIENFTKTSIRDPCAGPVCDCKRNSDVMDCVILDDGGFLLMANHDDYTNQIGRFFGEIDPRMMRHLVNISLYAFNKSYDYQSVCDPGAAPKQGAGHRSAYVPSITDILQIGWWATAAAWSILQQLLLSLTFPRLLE
T3 sequence (P54290 945-1091 partner limits assumed, other chains not shown): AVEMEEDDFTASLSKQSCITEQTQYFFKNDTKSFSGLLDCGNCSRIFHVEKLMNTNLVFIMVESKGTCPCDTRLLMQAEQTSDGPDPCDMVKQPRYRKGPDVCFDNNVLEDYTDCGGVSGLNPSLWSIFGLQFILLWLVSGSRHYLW

[4] = molecular target: human prostatic tissue; test: In vitro human prostate model: block of phenylephrine-induced contraction of human prostatic tissue; assay type: cell-based; conditions: In Vitro Human Prostate Model; phenylephrine-induced contraction
From the text: The protocol for these experiments is given below.
Functional Properties of α1 Antagonists in the Human Prostate
The efficacy of α1 adrenergic antagonists for the treatment of benign prostatic hyperplasia (BPH) is related to their ability to elicit relaxation of prostate smooth muscle. An index of this efficacy can be obtained by determining the potency of al antagonists to antagonize the contraction of human prostatic tissue induced by an α1 agonist “in vitro”. Furthermore, by comparing the potency of subtype selective α1 antagonists in binding assays using human α1 receptors with their potency to inhibit agonist-induced smooth muscle contraction, it is possible to determine which of the α1 adrenergic receptor subtypes is involved in the contraction of prostate smooth muscle.
Prostatic adenomas were obtained at the time of surgery from patients with symptomatic BPH. […] The baths were maintained at 37° C. and continuously oxygenated with 5% CO2 and 95% O2. Isometric tension was measured with a Grass Instrument FT03 force transducer interfaced with a computer. Tissue strips were contracted with varying concentrations of phenylephrine after incubating for 20 minutes in the absence and presence of at least three different concentrations of antagonist. Dose-response curves for phenylephrine were constructed, and the antagonist potency (pA2) was estimated by the dose-ratio method. The concentration of some antagonists in the tissue bath was assessed by measuring the displacement of [3H]prazosin by aliquots of the bath medium, using membrane preparations of the cloned human α1C receptor. This control was necessary to account for losses of antagonist due to adsorption to the tissue bath and/or metabolism during the time the antagonists were equilibrated with the prostate tissue.

[5] = system: canine prostate; test: In vivo dog prostate model: inhibition of phenylephrine-induced increase in urethral pressure in anesthetized dogs; conditions: In Vivo Dog Prostate Model; phenylephrine-induced contraction, urethral pressure
Protocol: Protocol for In Vivo Evaluation of Compounds in Canine Prostate
Adult male mongrel dogs more than one year of age were chosen for the model. After induction of general anesthesia using sodium pentobarbital (25 mg/Kg i.v.), the animals were intubated and allowed to breathe spontaneously. An arterial catheter was inserted via the femoral artery to monitor blood pressure and i.v. line was inserted into the leg for fluid and drug administration. A constant saline infusion was maintained at 40 to 50 mL/h. Next, a seven cm lower abdominal incision was made one cm lateral to the penis.
The bladder, prostate and a short segment of urethra were identified and isolated, without damage to the nerves or blood vessels. A cystotomy incision was made through which the pressure catheter was inserted and positioned in the prostatic urethra. The cystotomy was not closed, but the wound edges were sutured to stop bleeding. The tip of the catheter was positioned just distal to the prostate and secured in place with an O-silk tie around the urethra. A second holding suture at the bladder neck secured the catheter in place.
Fluid, either water or saline, was pumped by a Harvard infusion pump at 0.1 mL/min through a Gould pressure transducer into the catheter. The fluid exists at a port in the catheter which is in the prostatic urethra. Occlusion of the port, by contraction of the prostate, blocks the flow and a pressure wave is created. This pressure is transmitted back through the catheter to the transducer which is attached to a Gould recorder. Squeezing the prostate gland caused an increase in urethral pressure which verified the correct position in the urethra.
The compounds were tested as follows: A dose response curve was first generated for phenylephrine alone, in doses ranging from one μg/Kg to 50 μg/Kg. The absolute rise in urethral pressure was recorded for each dose and the next dose given when the urethral pressure returned to baseline. Phenylephrine dose response curves were generated in all animals tested. Increasing doses of compounds were then given, and the phenylephrine dose response curve repeated in the prepense of each dose of the compound. No animal received more than one compound; four animals were used to test each compound. To test for tachyphylaxis, four separate dogs were challenged with repeated phenylephrine doses for six hrs, the usual length of each experiment. From the dose-effect data, the inhibition constant (Ki) and the median-effect dose (ED50) were calculated. Both the Ki and ED50 values given are calculated by using microcomputer software and an IBM-PC.

[6] = molecular target: T4, α2A receptor (Homo sapiens, UniProt P08913); test: Competition binding, [3H]rauwolscine, human α2A receptor; conditions: [3H]rauwolscine
T4 construct: host or cells: LM(tk-) cells, line L-α2A
T4 sequence (P08913 1-465): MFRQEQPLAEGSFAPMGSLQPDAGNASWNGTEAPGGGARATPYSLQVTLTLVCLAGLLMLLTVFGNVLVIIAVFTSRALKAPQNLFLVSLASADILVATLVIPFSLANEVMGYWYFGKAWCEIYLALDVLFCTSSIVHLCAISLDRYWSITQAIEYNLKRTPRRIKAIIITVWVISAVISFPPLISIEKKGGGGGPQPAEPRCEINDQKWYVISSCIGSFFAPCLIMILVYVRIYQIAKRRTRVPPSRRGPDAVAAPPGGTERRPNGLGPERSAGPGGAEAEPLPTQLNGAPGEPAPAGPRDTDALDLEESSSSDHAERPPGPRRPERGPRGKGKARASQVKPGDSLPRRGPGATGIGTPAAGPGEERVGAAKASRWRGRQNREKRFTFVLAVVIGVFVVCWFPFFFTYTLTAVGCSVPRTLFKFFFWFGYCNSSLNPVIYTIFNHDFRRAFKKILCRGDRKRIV
From the text: as §1, §2, §3

[7] = molecular target: T5, α2C receptor (Homo sapiens, UniProt P18825); test: Competition binding, [3H]rauwolscine, human α2C receptor; conditions: [3H]rauwolscine
T5 construct: host or cells: LM(tk-) cells, line L-α2C
T5 sequence (P18825 1-462): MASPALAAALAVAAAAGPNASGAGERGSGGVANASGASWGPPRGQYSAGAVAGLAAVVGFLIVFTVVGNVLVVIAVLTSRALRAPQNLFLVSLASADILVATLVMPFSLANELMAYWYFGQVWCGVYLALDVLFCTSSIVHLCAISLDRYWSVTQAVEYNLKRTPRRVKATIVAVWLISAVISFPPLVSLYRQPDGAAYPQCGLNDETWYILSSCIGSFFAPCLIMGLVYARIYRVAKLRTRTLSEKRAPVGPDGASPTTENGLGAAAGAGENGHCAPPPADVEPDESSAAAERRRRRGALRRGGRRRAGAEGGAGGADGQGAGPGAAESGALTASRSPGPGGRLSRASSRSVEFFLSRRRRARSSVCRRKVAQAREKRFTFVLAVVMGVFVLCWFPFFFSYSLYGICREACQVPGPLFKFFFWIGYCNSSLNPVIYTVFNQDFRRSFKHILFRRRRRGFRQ
From the text: as §1, §2, §3

[8] = LM(tk-) cell line L-NGC-α2B, SEM and n in lines below
[9] = SEM and n in lines below, read-out: pKi Ca (converted)
[10] = human receptor, LM(tk-) cell lysates, mean, read-out: PKi alpha-2 2a (converted)
[11] = human receptor, LM(tk-) cell lysates, mean, read-out: PKi alpha-2 2b (converted)
[12] = human receptor, LM(tk-) cell lysates, mean, read-out: PKi alpha-2 2c (converted)
[13] = mean, read-out: PKi Ca (converted)

SMILES | pKi alpha-2 2b [2, 8] | Ki [3, 9] | Ki [6, 10] | Ki [7, 12] | Ki [3, 13] | melting point | also measured
CC1=C(C(N)=O)C(c2ccc([N+](=O)[O-])cc2)C(C(=O)NCCCN2CCC(c3ccccc3)(c3ccccc3)CC2)=C(C)N1 (racemic) [(±)-2] | 6.38 | 200 µM | – | – | – | – | pKi alpha-1 1a [1]: 6.22
COC(=O)C1=C(C)NC(C)=C(C(=O)NCCCN2CCC(c3ccccc3)(c3ccccc3)CC2)C1c1ccc([N+](=O)[O-])cc1 (racemic) [(±)-93, hydrochloride hydrate] | – | – | – | – | – | – | pKi [4]: 7.28 ± 0.4; Ki [5]: 7.6 nmol/kg
CCOC(=O)C1(c2ccccc2)CCN(CCCNC(=O)C2=C(C)NC(C)=C(C(C)=O)C2c2ccc([N+](=O)[O-])cc2)CC1 (racemic) [Example 202, 5-Acetyl-1,4-dihydro-2,6-dimethyl-3-{N-[3-(4-ethoxycarbonyl-4-phenylpiperidin-1-yl)propyl]}carboxamido-4-(4-nitrophenyl)pyridine] | – | – | 4.47 µM | 2.14 µM | 263 µM | 89 to 90 °C | Ki [2, 11]: 0.912 µM
CC1=C(C(N)=O)C(c2ccc([N+](=O)[O-])cc2)C(C(=O)NCCCN2CCC(c3ccccc3)(c3ccccc3)CC2)=C(C)N1 (single isomer, unassigned; (+)) [(+)-2] | 6.40 | – | – | – | – | – | pKi alpha-1 1a ([1]; [3H]prazosin, cloned human receptor in LM(tk-) cell membranes, SEM and n in lines below): 6.40; pKi Ca ([3]; SEM and n in lines below): 4.11
CC1=C(C(N)=O)C(c2ccc([N+](=O)[O-])cc2)C(C(=O)NCCCN2CCC(c3ccccc3)(c3ccccc3)CC2)=C(C)N1 (single isomer, unassigned; (-)) [(−)-2] | 6.56 | 1820 µM | – | – | – | – | pKi alpha-1 1a [1]: 6.46
CNC(=O)C1=C(C)NC(C)=C(C(=O)NCCCN2CCC(c3ccccc3)CC2)C1c1ccc([N+](=O)[O-])cc1 (centres unmarked) [Example 56, 1,4-Dihydro-2,6-dimethyl-5-(N-methyl) carboxamido-4-(4-nitrophenyl)-3-{N-[3-(4-phenylpiperidin-1-yl)propyl]}carboxamidopyridine hydrochloride hemihydrate] | – | 6.46 µM | – | – | – | – | Ki ([6]; LM(tk-) cell line L-α2A, SEM and n in lines below, read-out: pKi alpha-2 2a (converted)): 0.269 µM; Ki ([2]; LM(tk-) cell line L-NGC-α2B, SEM and n in lines below, read-out: pKi alpha-2 2b (converted)): 0.129 µM; Ki ([7]; LM(tk-) cell line L-α2C, SEM and n in lines below, read-out: pKi alpha-2 2c (converted)): 0.186 µM
COC(=O)C1(c2ccccc2)CCN(CCCNC(=O)C2=C(C)NC(C)=C(C(N)=O)C2c2ccc([N+](=O)[O-])cc2)CC1 (centres unmarked) [Example 198, 5-Carboxamido-1,4-dihydro-2,6-dimethyl-3-{N-[3-(4-methoxycarbonyl-4-phenylpiperidin-1-yl)propyl]}carboxamido-4-(4-nitrophenyl)pyridine] | – | – | 1.12 µM | 2.45 µM | 178 µM | 120 to 121 °C | Ki [2, 11]: 1.07 µM
COC(=O)C1(c2ccccc2)CCN(CCCNC(=O)C2=C(C)NC(C)=C(C(C)=O)C2c2ccc([N+](=O)[O-])cc2)CC1 (centres unmarked) [Example 201, 5-Acetyl-1,4-dihydro-2,6-dimethyl-3-{N-[3-(4-methoxycarbonyl-4-phenylpiperidin-1-yl)propyl]}carboxamido-4-(4-nitrophenyl)pyridine] | – | – | 4.47 µM | 3.24 µM | 67.6 µM | 94 to 95 °C | –
